Patent US8202886B2, “Small molecule E2F inhibitor” (H. Lee Moffitt Cancer Center and Research Institute, Inc., priority 2008, dated 2012)

What was measured:
8226-s = assay: MTS viability assay, 8226-s; assay type: cell-based; conditions: Homo sapiens; 8226-s parental
Protocol: (§1) Cells were collected 24 hours post drug exposure and extracts subjected to western blotting using antibodies to the indicated proteins. Cleavage of PARP indicates apoptosis.
(§2) To examine its effect on a range of commonly studied cell lines, the inventors utilized standard MTS assays to quantify cell viability following the therapeutic compound treatment. Cytotoxicity was determined using MTS assays, which were conducted using a CellTiter 96® AQueous One Cell Proliferation Assay Kit (Promega) following the published protocol. Cells in 0.1 ml volume were plated in triplicate into 96-well plates, 1×10^4 cells/well. the therapeutic compound was added and after 24 hours of incubation at 37° C., 20 μl of MTS dye was added to each well. Plates were read at 490 nm following 4 hrs MTS reaction time. The concentration of drug which produced a 50% inhibition of growth (IC50) was calculated from linear regression analysis of the linear portion of the growth curves.

8226-MR20 = assay: MTS viability assay, 8226-MR20; assay type: cell-based; conditions: Homo sapiens
Protocol: as §1, §2

MCF-7 = assay: Apo-BrdU TUNEL apoptosis assay, MCF-7; assay type: cell-based, human; conditions: 40-μM, 24-hrs
Source text: (§3) To determine if treatment with the therapeutic compound contributes to apoptosis, Cells were detached from culture plates by trypsin treatment, washed twice with PBS, and fixed in 70% ethanol. Fixed cells were washed twice with PBS and treated with RNase A and propidium iodide (PI). PI staining was examined using a Becton-Dickinson FACScan instrument and Cell Quest software. TUNEL assay for apoptosis utilized a Pharmingen APO-BRDU Kit. MTS (3-(4,5-dimethylthiazol-2-yl)-5-(3-carboxymethoxyphenyl)-2-(4-sulfophenyl)-2H-tetrazolium, inner salt) assays were conducted using a CellTiter 96® AQueous One Cell Proliferation Assay Kit (Promega).
(§4) A375, MDA-MB-231 (231), MCF-7 and human foreskin fibroblasts (HFF) cells were treated with 40-μM of the therapeutic compound for 24-hrs and subjected to a FACS based terminal deoxynucleotidyl transferase (TUNEL) assay (Apo-BrdU Kit from BD Pharmingen).

[1] = tested on: human foreskin fibroblasts (HFF); assay: Apo-BrdU TUNEL apoptosis assay, HFF; assay type: cell-based; conditions: 40-μM, 24-hrs
Source text: as §3, §4

A375 cells [2] = assay: Propidium iodide flow cytometry, sub-G1 DNA content; assay type: cell-based, human; conditions: 40-μM
Source text: as §3

E2F4-deficient MEFs = assay: Apoptosis (ApoBrdU, PARP western) in E2F4-deficient MEFs; assay type: cell-based, mouse
Protocol: FIG. 12A: MEFS derived from sibling WT and E2F4^−/− mice were treated for 24-hrs with the indicated doses of HLM006474. Apoptosis was determined using ApoBrdU (BD Pharmingen).
FIG. 12B: MEFS derived from sibling WT and E2F4^−/− mice were treated as in A subjected to western blotting using a PARP antibody or E2F4 antibody. PARP cleavage (as indicated by the arrow) is an independent measure of apoptosis.
To determine if the effect of the therapeutic compound is dependent upon E2F4, the inventors compared the therapeutic compound response of immortalized MEFs derived from E2F4-deficient mice with MEFS derived from wildtype siblings.

NCI60 cell lines = assay: NCI60 drug screen; assay type: cell-based; conditions: NCI standard concentration
Source text: FIG. 16: HLM006474 was submitted to the National Cancer Institutes Developmental Therapeutic Program NCI60 Drug Screening Program. […] Results are reported as mean growth percent less growth percent.
The therapeutic compound was submitted to the NCI60 drug screen.

H460 = assay: Western blots of treated H460 cells; assay type: cell-based
Protocol: (§5) In order to further examine the mechanism of action of the therapeutic compound four lung cancer cell lines were treated with various concentrations of drug and western blots performed on cell extracts after 24 hr.

A549 = assay: Western blots of treated A549 cells; assay type: cell-based
Protocol: as §5

H292 = assay: Western blots of treated H292 cells; assay type: cell-based
Protocol: as §5

H358 = assay: Western blots of treated H358 cells; assay type: cell-based; conditions: H358, 40 micromolar, 24 hrs
Protocol: (§6) The indicated NSCLC lines were treated with 40 micromolar the therapeutic compound and subjected western blotting 24 hrs later using the indicated antibodies.

NSCLC lines = assay: Western blots of cell cycle proteins in NSCLC lines; assay type: cell-based; conditions: every cell line treated, 40 micromolar, 24 hrs
Protocol: as §6

[3] = tested on: 8226-s, 8226-dox40 and 8226-MR20; assay: PARP cleavage western in drug sensitive and resistant 8226 lines; assay type: cell-based, human; conditions: 24 hours; 10 μM cisplatin or 10, 20 or 40 μM HLM006474
Protocol: as §1

A375 cells [4] = assay: MTS proliferation/viability over time; assay type: cell-based, human; conditions: 40 μM, 24-, 48- and 72-hrs
Protocol: as §2, with “Cells in 0.1 ml volume were plated in triplicate into 96-well plates, 1×10^4 cells/well. the therapeutic compound was added and after 24 hours of incubation at 37° C., 20 μl of MTS dye was added to each well.” left out

E2F complexes = assay: E2F EMSA on extracts of treated breast cancer cell lines; assay type: cell-based; conditions: 40 μM
Protocol: Several breast cancer cell lines were treated with 40 μM HLM006474 and extracts subjected to E2F EMSA assay.
Quantitative EMSA assays were performed in triplicate.

breast cancer cell lines = assay: Western blots of Rb family members in breast cancer cell lines; assay type: cell-based; conditions: 40 micromolar, 24 hrs
231 cells = assay: RNase protection assay, 231; assay type: cell-based, human
Protocol: The indicated breast cancer lines were treated with 40 micromolar the therapeutic compound and subjected RNAse protection assay 24 hrs later using the indicated probes.
An RNase protection assay was performed to determine if downregulation of the Rb family members at the level of mRNA could account for the downregulation of the proteins. Two breast cancer cell lines were examined at 0, 3, 6, 9, 18 and 24 hr following the therapeutic compound treatment (FIG. 21).

A375 cells [5] = assay: Western blots of treated A375 cells
Protocol: Actin served as a loading control in these experiments and in those that follow.
To determine the activity of the therapeutic compound over time, A375 cells were treated with 40-μM of compound and examined at 0-, 3-, 6-, 9-, 12-, 18- and 24-hrs by EMSA and western (FIG. 11A).
To further examine the timing of the therapeutic compound-induced apoptosis, A375 cells were treated with 40-μM the therapeutic compound, harvested and fixed at various time periods.
To compare the mechanism of the therapeutic compound-induced apoptosis with that of several standard DNA damaging drugs, A375 cells were treated for 24-hrs with 40-μM the therapeutic compound, 10 μM cisplatin, 10 nM doxorubicin, 10 μM VP16 (etoposide) or with two-drug combinations.
Western blots utilized 50 μg of whole cell extract per lane as previously described. […] Detection of proteins was accomplished using horseradish-peroxidase-conjugated secondary antibodies and enhanced chemiluminescence (ECL) purchased from Amersham.

In the case of `CCOc1ccc(C(Nc2ccccn2)c2ccc3ccc(C)nc3c2O)cc1C` (stereo not drawn) [HLM006474], the IC50 (8226-s) is reported as 36 ± 6 µM, the IC50 (8226-MR20) is reported as 46 ± 6 µM and the “apoptosis (TUNEL)” value (MCF-7) is reported as “did not induce an obvious increase in apoptosis”. For the same molecule, the “apoptosis (TUNEL)” value [1] was “did not induce an obvious increase in apoptosis”, the “time at which increase in sub-G1 DNA content begins” value (A375 cells [2]) was “approximately 9 hrs” and the “sensitivity of E2F4 knockout MEFs versus cells from littermate animals” value (E2F4-deficient MEFs) was “less sensitive”. The “concentration required to detect PARP cleavage” value (E2F4-deficient MEFs; E2F4-deficient MEFs) was 60 µM, the “growth inhibition in NCI60 cell lines” value (NCI60 cell lines) was “significantly growth inhibited” and the “Bcl-2 or Mcl-2 (western)” value (H460; H460, 40-μM) was “did not show changes”. For the same molecule, the “sensitivity (downregulation of E2F1 and E2F4, PARP cleavage)” value (H460; H460, various concentrations, 24 hr) was “very sensitive”, the “Mcl-1 (western)” value (A549; A549, 40-μM) was “downregulation of Mcl-1” and the “sensitivity (downregulation of E2F1 and E2F4, PARP cleavage)” value (A549; A549, various concentrations, 24 hr) was “limited sensitivity”. For the same molecule, the “Mcl-1 (western)” value (H292; H292, 40-μM) was “downregulation of Mcl-1”, the “sensitivity (downregulation of E2F1 and E2F4, PARP cleavage)” value (H292; H292, various concentrations, 24 hr) was “limited sensitivity” and the “cyclin A or E2F1 (western)” value (H358) was “no decrease”. The “Rb (western)” value (NSCLC lines) was “down (at least modestly)”, the “PARP cleavage (apoptosis) in sensitive versus resistant lines” value [3] was “very similar” and the “cellular proliferation/viability (MTS)” value (A375 cells [4]) was “significantly affected”. For the same molecule, the “DNA-binding of all E2F complexes (EMSA)” value (E2F complexes) was “inhibited”, the “Rb and p107 proteins (western)” value (breast cancer cell lines) was “dramatically down regulated” and the “Rb at the mRNA level” value (231 cells) was “no significant change”. The “p21 mRNA” value (231 cells) was “upregulated”, the “expression of E2F4 or E2F1 (western)” value (A375 cells [5]; 9-hrs of treatment) was “does not significantly affect” and the “Mcl-1 (western)” value (A375 cells [5]; 24-hrs, 40-μM) was “may slightly repress Mcl-1”. For the same molecule, the “PARP cleavage (western)” value (A375 cells [5]; 24-hrs, 40-μM) was “potent inducer of PARP cleavage”, the “time at which PARP cleavage indicates significant apoptosis” value (A375 cells [5]; 40-μM) was no more than 12 h and the “time at which decrease in total E2F4 protein became apparent” value (A375 cells [5]; 40-μM) was “up to 24 hrs”.
